Laboratory results: patent US8445502B2, “Pharmaceutical formulations comprising salts of a protein kinase inhibitor and methods of using same” (Astex Pharmaceuticals, Inc., priority 2007, dated 2013)
Where two headings read alike, the source gives them in different places.

Legend:
[1] = Solubility of MP470 and its salts (Table 2); assay type: physicochemical
[2] = Single-dose pharmacokinetics in rat (Table 10); assay type: in vivo
Description: MP470 free base has a relative bioavailability of […] as compared to the HCl salt.

[3] = in vivo; conditions: both, beagle, dog, iv
Experimental: The purpose of these studies was to determine the highest level of MP470 free base that can be administered intravenously to dogs without causing extreme illness, maximum tolerated dose (MTD). In both studies a single male and a single female beagle dog were injected intravenously with MP470.
In the second study we tested doses of 0.625, 1.25, 2.5, 5, 10, and 20 mg/kg MP470 in 1 male and 1 female beagle dog with 48-96 hrs between dose escalations, with the exception of 11 days between dose 5 and 6. Additionally, in this study approximately 5-10 second electrocardiograph (ECG) tracings in a lead II configuration were obtained from each dog prior to each dose, approximately 20 minutes after the start of dosing, and immediately after completion of dosing.

[4] = tested on: γ-H2AX levels in OVCAR-3 (ovarian carcinoma) cells; experiment: DNA damage by γ-H2AX levels; assay type: cell-based; conditions: single agent 10 μM; control 0.5% DMSO medium
Experimental: OVCAR-3 (ovarian carcinoma) cells were treated with MP470 (10 μM), MP470.HCl (10 μM), and/or topotecan (10 μM).

[5] = tested on: A549 lung cancer cells; assay type: in vivo; conditions: for tumor growth rate: qd×5×3 wk (vehicle 43)
Experimental: MP470 and MP470 HCl were tested against different tumor types in athymic nude mice as summarized below (Table 8). Various formulations and routes were evaluated. HT-29 colorectal cancer cells and SB-CL2 melanoma cells were implanted subcutaneously, while A549 lung cancer cells, MiaPaCa-2 pancreatic cancer cells, TT medullary thyroid cancer cells, and OVCAR-3 ovarian cancer cells were implanted […] in the hind flank of mice. All animals were allowed to develop medium-sized (80-125 mg) tumors, before initiation of dosing. Tumor volume and mouse bodyweight were followed over the course of the study.
A549 Lung Cancer Model—In 40 nude mice implanted intradermally with A549 lung cancer cells, animals were dosed with vehicle orally, MP470 in 100% corn oil orally, or 5-FU in sterile saline IP. […] […] While MP470 reduced tumor growth rates, treatment of these cells with 5-FU reduced the overall tumor growth rate per day further to 19.5 mm3/d on Day 26.
To determine whether MP470.HCl in combination with carboplatin increased the anti-tumor activity in xenograft tumors growing in vivo, the agents were administered alone and in combination and tumor growth was monitored. MP470.HCl (50 mg/kg) was combined with carboplatin (30 mg/kg) alone or carboplatin with taxol (20 mg/kg).

[6] = tested on: Rad51 in cancer cell lines; experiment: Rad51 Western blot after ionizing radiation; assay type: cell-based; conditions: cells pretreated with MP470
Description: Similar to IR, the sensitivity of cancer cells to platinum-based drugs can be affected by the level of Rad51 protein.

[7] = molecular target: cKit (D816V) (h) (Homo sapiens, UniProt P10721, D816V); experiment: Mutant kinase IC50 screen; assay type: biochemical
cKit (D816V) (h), sequence (P10721 26-976 D816V): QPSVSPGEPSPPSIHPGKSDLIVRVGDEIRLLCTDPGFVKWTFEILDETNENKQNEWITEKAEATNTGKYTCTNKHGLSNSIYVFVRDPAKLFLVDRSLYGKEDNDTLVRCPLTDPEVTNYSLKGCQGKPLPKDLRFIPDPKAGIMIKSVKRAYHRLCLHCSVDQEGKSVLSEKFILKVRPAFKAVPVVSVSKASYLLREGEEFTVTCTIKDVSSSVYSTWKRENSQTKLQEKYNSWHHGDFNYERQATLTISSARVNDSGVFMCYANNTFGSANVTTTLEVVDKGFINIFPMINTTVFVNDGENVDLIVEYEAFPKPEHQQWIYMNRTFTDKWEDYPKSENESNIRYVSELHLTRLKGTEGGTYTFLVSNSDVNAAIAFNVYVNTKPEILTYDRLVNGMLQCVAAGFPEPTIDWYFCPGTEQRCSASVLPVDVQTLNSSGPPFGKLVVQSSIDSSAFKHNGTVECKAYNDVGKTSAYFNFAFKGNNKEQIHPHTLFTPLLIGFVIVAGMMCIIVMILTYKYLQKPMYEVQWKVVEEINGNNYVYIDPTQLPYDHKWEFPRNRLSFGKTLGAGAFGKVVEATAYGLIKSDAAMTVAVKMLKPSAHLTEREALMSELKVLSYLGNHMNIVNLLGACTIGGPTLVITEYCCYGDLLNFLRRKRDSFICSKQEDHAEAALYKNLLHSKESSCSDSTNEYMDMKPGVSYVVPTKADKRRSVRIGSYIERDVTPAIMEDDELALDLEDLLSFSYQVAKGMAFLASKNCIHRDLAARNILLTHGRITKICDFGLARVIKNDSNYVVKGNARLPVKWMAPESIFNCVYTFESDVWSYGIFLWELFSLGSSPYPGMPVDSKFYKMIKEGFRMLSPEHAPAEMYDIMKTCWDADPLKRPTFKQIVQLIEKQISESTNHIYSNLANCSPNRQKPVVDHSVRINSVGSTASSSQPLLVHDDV
Experimental: (§1) IC50 values for MP470.HCl were determined for four mutant c-Kit kinases, one mutant Flt3 kinase, and two mutant PDGFRα kinases.

[8] = molecular target: cKit (V654A) (h) (Homo sapiens, UniProt P10721, V654A); experiment: Mutant kinase IC50 screen; assay type: biochemical
cKit (V654A) (h), sequence (P10721 26-976 V654A): as the sequence (P10721 26-976 D816V) above, with V629A, V791D counted along it
Experimental: as §1

[9] = molecular target: Flt3 (D835Y) (h) (Homo sapiens, UniProt P36888, D835Y); experiment: Mutant kinase IC50 screen; assay type: biochemical
Experimental: as §1

[10] = molecular target: PDGFRα (D842V) (h) (Homo sapiens, UniProt P16234, D842V); experiment: Mutant kinase IC50 screen; assay type: biochemical
PDGFRα (D842V) (h), sequence (P16234 24-1089 D842V): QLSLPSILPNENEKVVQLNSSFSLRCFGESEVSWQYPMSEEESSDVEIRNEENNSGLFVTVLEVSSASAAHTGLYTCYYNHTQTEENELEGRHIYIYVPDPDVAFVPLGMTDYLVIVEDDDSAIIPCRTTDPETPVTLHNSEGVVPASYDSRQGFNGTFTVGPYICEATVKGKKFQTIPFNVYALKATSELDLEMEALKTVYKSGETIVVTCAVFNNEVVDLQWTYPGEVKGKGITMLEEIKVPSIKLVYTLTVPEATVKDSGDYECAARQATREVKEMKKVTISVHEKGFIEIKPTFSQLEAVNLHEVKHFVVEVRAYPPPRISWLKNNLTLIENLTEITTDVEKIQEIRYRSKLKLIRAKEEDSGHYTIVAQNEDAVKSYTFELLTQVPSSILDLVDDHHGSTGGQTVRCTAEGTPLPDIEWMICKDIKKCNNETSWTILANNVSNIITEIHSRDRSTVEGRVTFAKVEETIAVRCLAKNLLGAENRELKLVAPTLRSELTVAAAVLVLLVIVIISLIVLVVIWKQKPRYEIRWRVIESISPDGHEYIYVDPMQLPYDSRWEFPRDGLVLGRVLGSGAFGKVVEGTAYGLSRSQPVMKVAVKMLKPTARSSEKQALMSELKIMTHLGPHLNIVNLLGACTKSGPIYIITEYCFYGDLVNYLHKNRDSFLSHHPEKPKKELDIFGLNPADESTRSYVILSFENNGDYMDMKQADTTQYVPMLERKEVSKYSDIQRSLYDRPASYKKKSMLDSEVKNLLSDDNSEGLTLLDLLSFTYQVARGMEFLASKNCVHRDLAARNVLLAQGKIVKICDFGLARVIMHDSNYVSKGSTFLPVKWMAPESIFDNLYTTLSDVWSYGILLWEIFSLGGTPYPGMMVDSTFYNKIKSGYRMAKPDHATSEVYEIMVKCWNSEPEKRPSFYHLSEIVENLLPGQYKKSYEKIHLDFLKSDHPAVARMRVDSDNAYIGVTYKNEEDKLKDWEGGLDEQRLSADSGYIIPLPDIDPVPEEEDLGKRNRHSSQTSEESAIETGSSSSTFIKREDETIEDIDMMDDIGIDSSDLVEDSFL
Experimental: as §1

[11] = molecular target: PDGFRα (V561D) (h) (Homo sapiens, UniProt P16234, V561D); experiment: Mutant kinase IC50 screen; assay type: biochemical
PDGFRα (V561D) (h), sequence (P16234 24-1089 V561D): as the sequence (P16234 24-1089 D842V) above, with V538D, V819D counted along it
Experimental: as §1

[12] = molecular target: cKit (V560G) (h) (Homo sapiens, UniProt P10721, V560G); experiment: Mutant kinase IC50 screen; assay type: biochemical
cKit (V560G) (h), sequence (P10721 26-976 V560G): as the sequence (P10721 26-976 D816V) above, with V535G, V791D counted along it
Experimental: as §1

[13] = molecular target: cKit (D816H) (h) (Homo sapiens, UniProt P10721, D816H); experiment: Mutant kinase IC50 screen; assay type: biochemical
cKit (D816H) (h), sequence (P10721 26-976 D816H): as the sequence (P10721 26-976 D816V) above, with V791H counted along it
Experimental: as §1

[14] = in vivo; conditions: rat; for severely toxic dose / severely toxic dose (STD): 28 days
Experimental: In a chronic tolerability study of MP470 hydrochloride salt in the rat, the animals were dosed 20, 60, 100 or 200 mg/kg/d (males) and 6, 20, 60 and 100 mg/kg/d (females) daily for 28 days. One female rat died after 5 doses at 100 mg/kg/d, however the it was not clear if this was related to the drug. Two additional female rats died on days 28 and 42 (control and 60 mg/kg/d) possibly due the trauma induced by repeated blood collection. There were no clinical signs of severe toxicity prior to deaths. The clinical abnormalities included hunched posture, soft feces and sporadic occurrence of hair loss. […] Although all animals gained weight during the study, the relative gain was lower in the males at 200 mg/kg/d (70% control) and females at 60 and 100 mg/kg/d (83 and 57% control). […] There were signs of recovery after cessation of dosing. There were no drug related adverse ophthalmologic effects or change hematology parameters. Significant clinical chemistry changes included decreases in glucose and triglyceride levels in males at 200 mg/kg/d, and alterations in cholesterol, troponin-1 and alkaline phosphatase in females (60 and 100 mg/kg/d). There was no correlative histopathology for these alterations. There were no drug related adverse changes in urinalysis or organ weight changes. There were sporadic alterations in organ weights but without corresponding microscopic pathology. […] There was adequate systemic exposure in both sexes; however the exposure was not dose-proportional (lower at higher doses). At all doses exposure to females was higher than that in males and exposure on day 27 was higher than that on day 1. There was substantial variability in the half-lives and ranged from 2 to 8 hours. The no observed effect level (NOEL) was 60 mg/kg/d (360 mg/m2/d) for males and 20 mg/kg/d (120 mg/m2/d) for females. In the absence of clear target organ toxicity or signs of severe toxicity a severely toxic dose (STD) could not be calculated. STD is likely to be higher than 100 mg/kg/d for females and 200 mg/kg/d for the males.

[15] = 50 mM PBS buffer, pH 7, aqueous buffer, 50 mM PBS buffer, pH 7, read-out: Solubility (50 mM PBS buffer, pH 7, Exp. 15)
[16] = water, read-out: Solubility in water
[17] = Rat, 100 mg/kg PO, Dry Blend, hydrochloride, 100 mg/kg

For S=C(NCc1ccc2c(c1)OCO2)N1CCN(c2ncnc3c2oc2ccccc23)CC1 [MP470, 4-[1]benzofuro[3,2-d]pyrimidin-4-yl-N-(1,3-benzodioxol-5-ylmethyl)piperazine-1-carbothioamide], the Solubility [1, 15] was 1.22 µg/mL, the Solubility [1, 16] was 4.94 µg/mL and the “Cmax” value ([2]; Rat, 100 mg/kg PO, Dry Blend) was 0.71 µg/mL. The “Tmax” value ([2]; Rat, 100 mg/kg PO, Dry Blend) was 11.3 h, the “AUC0→last” value ([2]; Rat, 100 mg/kg PO, Dry Blend, 100 mg/kg) was 7.91 µg·h/mL and the “AUC0→last” value ([2]; Rat, 100 mg/kg PO, Dry Blend, listed as MP470 (free base), 100 mg/kg) was 7.9 µg·h/mL. The bioavailability ([2]; in vivo, Rat, 100 mg/kg oral, dry powder blend, read-out: relative bioavailability as compared to the HCl salt) was 8%, the MTD at 0.5 h [3] was 10 mg/kg and the “Increase in DNA damage (γ-H2AX) over control” value [4] was “did not cause DNA damage”. For the same molecule, the “Outcome: tumor growth” value ([5]; A549 lung, MP470 PO 50, 100, 200 mg/kg, (qd × 5) × 2 w, corn oil) was “no apparent dose relationship”, the tumor growth rate ([5]; Day 26, 50 mg/kg oral in corn oil) was 28.3 mm3/d and the tumor growth rate ([5]; Day 26, 100 mg/kg oral in corn oil) was 34.9 mm3/d. The tumor growth rate ([5]; Day 26, 150 mg/kg oral in corn oil) was 28.1 mm3/d and the “Rad51 protein level after ionizing radiation” value [6] was “Rad51 remained near control levels even after exposure to IR”.
With Cl.S=C(NCc1ccc2c(c1)OCO2)N1CCN(c2ncnc3c2oc2ccccc23)CC1 [MP470.HCl, 4-[1]benzofuro[3,2-d]pyrimidin-4-yl-N-(1,3-benzodioxol-5-ylmethyl)piperazine-1-carbothioamide hydrochloride] the Solubility [1, 15] was 3.28 µg/mL, the Solubility [1, 16] was 31.1 µg/mL and the “AUC0→last” value ([2]; Rat, 3 mg/kg IV bolus, TV-10) was 18.81 µg·h/mL. For the same molecule, the “Cmax” value ([2]; Rat, 3 mg/kg IV bolus, TV-10) was 8.53 µg/mL, the “Tmax” value ([2]; Rat, 3 mg/kg IV bolus, TV-10) was 0.02 h and the “AUC0→last” value ([2]; Rat, 100 mg/kg PO, Corn oil) was 73.35 µg·h/mL. The “Cmax” value ([2]; Rat, 100 mg/kg PO, Corn oil) was 5.27 µg/mL, the “Tmax” value ([2]; Rat, 100 mg/kg PO, Corn oil) was 4.0 h and the “Cmax” value ([2]; Rat, 100 mg/kg PO, Dry Blend) was 7.19 µg/mL. For the same molecule, the “Tmax” value ([2]; Rat, 100 mg/kg PO, Dry Blend) was 9.5 h, the “AUC0→last” value [2, 17] was 94.31 µg·h/mL and the “AUC0→last (μg · h/mL)” value [2, 17] was “about 94 μg · h/mL”. For the same molecule, the Tmax ([2]; Rat, 100 mg/kg orally, range over vehicles) was 4.0 to 9.5 h, the Cmax ([2]; in vivo, po, Rat, 100 mg/kg orally, range over vehicles, read-out: Cmax) was 4.6 to 7.2 µg/mL and the “t½β” value ([2]; rat, in vivo, iv, 3 mg/kg) was 0.36 h. For the same molecule, the “Increase in DNA damage (γ-H2AX) over control” value [4] was “did not cause DNA damage”, the “Outcome: tumor growth” value ([5]; A459 lung cancer, MP470.HCl PO 50 mg/kg, qd × 21, corn oil, hydrochloride, 50 mg/kg) was “Dose dependency” and the IC50 [7] was 0.95 µM. It also gave an IC50 [8] of 0.127 µM, an IC50 [9] of 8.05 µM and an IC50 [10] of 0.081 µM. The IC50 [11] was 0.04 µM, the IC50 [12] was 0.034 µM and the IC50 [13] was 0.01 µM. For the same molecule, the half-life ([14]; both sexes, rats, daily oral dosing 28 days, read-out: half-lives) was 2 to 8 h, the severely toxic dose ([14]; female) was over 600 mg/m2/d and the “severely toxic dose (STD)” value ([14]; female) was “higher than 100 mg/kg/d”. The severely toxic dose ([14]; male) was over 1200 mg/m2/d, the “severely toxic dose (STD)” value ([14]; male) was over 200 mg/kg/day and the “cardiotoxicity (histopathology)” value [14] was “no evidence of cardiotoxicity in either sex”.
